Among the data in patent publication US12097241B2, “Methods of treating kidney failure, and/or improving or stablizing renal function using modified relaxin polypeptides” (BRISTOL-MYERS SQUIBB COMPANY, priority 2017, dated 2024) are EC50 values, retold here.

For the assay, the target named is T1, human RXFP1 receptor (Homo sapiens, UniProt Q9HBX9).
T1 construct: expressed in transfected cells
T1 sequence (Q9HBX9 1-757): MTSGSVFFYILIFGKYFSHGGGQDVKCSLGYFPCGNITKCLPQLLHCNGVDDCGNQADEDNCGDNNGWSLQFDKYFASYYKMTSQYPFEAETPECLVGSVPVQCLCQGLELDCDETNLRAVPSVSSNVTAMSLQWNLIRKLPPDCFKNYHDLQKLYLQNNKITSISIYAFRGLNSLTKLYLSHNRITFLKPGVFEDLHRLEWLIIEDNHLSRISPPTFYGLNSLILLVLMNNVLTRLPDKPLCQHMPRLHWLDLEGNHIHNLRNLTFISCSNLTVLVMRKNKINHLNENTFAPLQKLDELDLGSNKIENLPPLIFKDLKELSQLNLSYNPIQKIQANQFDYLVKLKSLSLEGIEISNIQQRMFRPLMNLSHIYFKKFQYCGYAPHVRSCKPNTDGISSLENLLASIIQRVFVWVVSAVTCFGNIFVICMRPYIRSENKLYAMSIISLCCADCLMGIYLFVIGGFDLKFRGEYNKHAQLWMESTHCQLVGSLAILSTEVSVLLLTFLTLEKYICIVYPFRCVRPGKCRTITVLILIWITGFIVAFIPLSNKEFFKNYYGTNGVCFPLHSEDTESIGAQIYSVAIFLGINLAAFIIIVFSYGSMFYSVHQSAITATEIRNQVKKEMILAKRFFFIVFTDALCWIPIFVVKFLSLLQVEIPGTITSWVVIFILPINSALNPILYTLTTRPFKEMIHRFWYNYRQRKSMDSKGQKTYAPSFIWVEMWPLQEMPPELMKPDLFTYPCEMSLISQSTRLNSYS
Nature of the assay: Intracellular cAMP accumulation assay. The class given is cell-based. In general terms: Changes in cAMP serve as a functional read-out for many G protein-coupled receptors.
Method: The intracellular cAMP accumulation assay described herein was used to assess relaxin bioactivity and potency.
CHO-K1 cells (ATCC; Cat. #CRL-9618) stably expressing the human RXFP1 receptor (locus number LOC59350) (10,000/well) were plated into 96-well plates and cultured overnight at 37° C. and 5% CO2. On the following day, the medium was removed from the wells and the cells were stimulated with the addition of ligand (relaxin polypeptide) in 50 uL buffer (1×HBSS, 5 mM HEPES (7.2), 0.5 mM IBMX, 0.1% BSA); incubation was for 10 min at 37° C. Unstimulated cells were utilized as reference controls. Reactions were terminated and cellular cAMP levels were measured using the Homogeneous Time Resolved Fluorescence (HTRF) Dynamic 2 cAMP kit (CisBio, #62AM4PEC) according to the manufacturer's protocol. Plates were analyzed using an EnVision 2104 Multilablel Reader (PerkinElmer). Signal was expressed in terms of the ratio of fluorescence intensity @ 665 nm/fluorescence intensity @620 nm×10,000. The concentration of cAMP in the sample was determined by comparison with standard curves generated from known concentrations of cAMP. The potency of each relaxin was determined using a ten-point concentration response curves which was performed in duplicate. The data were analyzed using Microsoft Excel, Version 2013 Xlfit software. Effective concentration 50 (EC50) values, the point at which the response was one-half maximal, were calculated using a four-parameter logistic equation that allowed for a variable-slope (Table 3).
For the molecule `CC[C@H](C)[C@@H]1NC(=O)[C@H](C)NC(=O)[C@H]([C@@H](C)CC)NC(=O)[C@H](CCC(N)=O)NC(=O)[C@H](C)NC(=O)[C@H](CCCNC(=N)N)NC(=O)[C@H](C(C)C)NC(=O)[C@H](CC(C)C)NC(=O)[C@H](CCC(=O)O)NC(=O)[C@H](CCCNC(=N)N)NC(=O)CNC(=O)[C@@H](NC(=O)[C@H](CC(C)C)NC(=O)[C@H](CCCCN)NC(=O)[C@@H](NC(=O)[C@@H](NC(=O)[C@H](CCC(=O)O)NC(=O)[C@H](CCC(=O)O)NC(=O)[C@H](CCSC)NC(=O)[C@H](Cc2c[nH]c3ccccc23)NC(=O)[C@H](CO)NC(=O)[C@H](C)N)C(C)C)[C@@H](C)CC)CSSC[C@@H]2NC(=O)[C@@H](NC(=O)[C@H](CCCCN)NC(=O)[C@H](CC(N)=O)NC(=O)[C@H](C)NC(=O)[C@H](CC(C)C)NC(=O)[C@H](C)NC(=O)[C@H](CO)NC(=O)[C@H](Cc3ccc(O)cc3)NC(=O)[C@H](CC(C)C)NC(=O)[C@@H](N)Cc3ccc(C(C)=NOCCNC(=O)[C@H](CCCCN)NC(=O)[C@H](CCCCN)NC(=O)[C@H](CO)NC(=O)CNC(=O)CNC(=O)[C@H](CO)NC(=O)CNC(=O)CNC(=O)[C@H](CCC(=O)O)NC(=O)CCCCCCCCCCCCC(=O)O)cc3)CSSC[C@H](NC(=O)CNC(=O)[C@H](C(C)C)NC(=O)[C@H](Cc3c[nH]cn3)NC2=O)C(=O)N[C@@H]([C@@H](C)O)C(=O)N[C@@H](CCCCN)C(=O)N[C@@H](CCCNC(=N)N)C(=O)N[C@@H](CO)C(=O)N[C@@H](CC(C)C)C(=O)N[C@@H](C)C(=O)N[C@@H](CCCNC(=N)N)C(=O)N[C@@H](Cc2ccccc2)C(=O)N[C@H](C(=O)O)CSSC[C@@H](C(=O)NCC(=O)N[C@@H](CCSC)C(=O)N[C@@H](CO)C(=O)N[C@H](C(=O)N[C@@H](Cc2c[nH]c3ccccc23)C(=O)N[C@@H](CO)C(=O)O)[C@@H](C)O)NC1=O` [AQ1-KKSGGSGG-Glu^α-C13-COOH], the EC50 (usually the concentration giving half of the maximal effect) came to 270 pM. That is a sub-nanomolar value.
Next, `CCCCCCCCCCCCCCC(=O)N[C@@H](CCC(=O)N[C@@H](CCC(=O)O)C(=O)N[C@@H](CCC(=O)O)C(=O)N[C@@H](CCC(=O)O)C(=O)N[C@@H](CCC(=O)O)C(=O)N1CCC[C@H]1C(=O)N[C@@H](CCC(=O)O)C(=O)N[C@@H](CCC(=O)O)C(=O)N[C@@H](CCC(=O)O)C(=O)N[C@@H](CCC(=O)O)C(=O)N1CCC[C@H]1C(=O)N[C@@H](CCC(=O)O)C(=O)N[C@@H](CCC(=O)O)C(=O)N[C@@H](CCC(=O)O)C(=O)N[C@@H](CCC(=O)O)C(=O)N1CCC[C@H]1C(=O)N[C@@H](CCC(=O)O)C(=O)N[C@@H](CCC(=O)O)C(=O)N[C@@H](CCC(=O)O)C(=O)N[C@@H](CCC(=O)O)C(=O)NCCON=C(C)c1ccc(C[C@H](N)C(=O)N[C@@H](CC(C)C)C(=O)N[C@@H](Cc2ccc(O)cc2)C(=O)N[C@@H](CO)C(=O)N[C@@H](C)C(=O)N[C@@H](CC(C)C)C(=O)N[C@@H](C)C(=O)N[C@@H](CC(N)=O)C(=O)N[C@@H](CCCCN)C(=O)N[C@H]2CSSC[C@@H]3NC(=O)CNC(=O)[C@H](C(C)C)NC(=O)[C@H](Cc4c[nH]cn4)NC(=O)[C@H](CSSC[C@H](NC(=O)[C@H](CC(C)C)NC(=O)[C@H](CCCCN)NC(=O)[C@@H](NC(=O)[C@@H](NC(=O)[C@H](CCC(=O)O)NC(=O)[C@H](CCC(=O)O)NC(=O)[C@H](CCSC)NC(=O)[C@H](Cc4c[nH]c5ccccc45)NC(=O)[C@H](CO)NC(=O)[C@H](C)N)C(C)C)[C@@H](C)CC)C(=O)NCC(=O)N[C@@H](CCCNC(=N)N)C(=O)N[C@@H](CCC(=O)O)C(=O)N[C@@H](CC(C)C)C(=O)N[C@@H](C(C)C)C(=O)N[C@@H](CCCNC(=N)N)C(=O)N[C@@H](C)C(=O)N[C@@H](CCC(N)=O)C(=O)N[C@@H]([C@@H](C)CC)C(=O)N[C@@H](C)C(=O)N[C@@H]([C@@H](C)CC)C(=O)N[C@H](C(=O)NCC(=O)N[C@@H](CCSC)C(=O)N[C@@H](CO)C(=O)N[C@H](C(=O)N[C@@H](Cc4c[nH]c5ccccc45)C(=O)N[C@@H](CO)C(=O)O)[C@@H](C)O)CSSC[C@@H](C(=O)O)NC(=O)[C@H](Cc4ccccc4)NC(=O)[C@H](CCCNC(=N)N)NC(=O)[C@H](C)NC(=O)[C@H](CC(C)C)NC(=O)[C@H](CO)NC(=O)[C@H](CCCNC(=N)N)NC(=O)[C@H](CCCCN)NC(=O)[C@H]([C@@H](C)O)NC3=O)NC2=O)cc1)C(=O)O` [AQ1-EEEEPEEEEPEEEEPEEEE-Glu^γ-C14-CH3]: 330 pM; `CCCCCCCCCCCCCCCC(=O)N[C@@H](CCC(=O)N[C@@H](CCC(=O)O)C(=O)N[C@@H](CCC(=O)O)C(=O)N[C@@H](CCC(=O)O)C(=O)N[C@@H](CCC(=O)O)C(=O)N1CCC[C@H]1C(=O)N[C@@H](CCC(=O)O)C(=O)N[C@@H](CCC(=O)O)C(=O)N[C@@H](CCC(=O)O)C(=O)N[C@@H](CCC(=O)O)C(=O)N1CCC[C@H]1C(=O)N[C@@H](CCC(=O)O)C(=O)N[C@@H](CCC(=O)O)C(=O)N[C@@H](CCC(=O)O)C(=O)N[C@@H](CCC(=O)O)C(=O)N1CCC[C@H]1C(=O)N[C@@H](CCC(=O)O)C(=O)N[C@@H](CCC(=O)O)C(=O)N[C@@H](CCC(=O)O)C(=O)N[C@@H](CCC(=O)O)C(=O)NCCON=C(C)c1ccc(C[C@H](N)C(=O)N[C@@H](CC(C)C)C(=O)N[C@@H](Cc2ccc(O)cc2)C(=O)N[C@@H](CO)C(=O)N[C@@H](C)C(=O)N[C@@H](CC(C)C)C(=O)N[C@@H](C)C(=O)N[C@@H](CC(N)=O)C(=O)N[C@@H](CCCCN)C(=O)N[C@H]2CSSC[C@@H]3NC(=O)CNC(=O)[C@H](C(C)C)NC(=O)[C@H](Cc4c[nH]cn4)NC(=O)[C@H](CSSC[C@H](NC(=O)[C@H](CC(C)C)NC(=O)[C@H](CCCCN)NC(=O)[C@@H](NC(=O)[C@@H](NC(=O)[C@H](CCC(=O)O)NC(=O)[C@H](CCC(=O)O)NC(=O)[C@H](CCSC)NC(=O)[C@H](Cc4c[nH]c5ccccc45)NC(=O)[C@H](CO)NC(=O)[C@H](C)N)C(C)C)[C@@H](C)CC)C(=O)NCC(=O)N[C@@H](CCCNC(=N)N)C(=O)N[C@@H](CCC(=O)O)C(=O)N[C@@H](CC(C)C)C(=O)N[C@@H](C(C)C)C(=O)N[C@@H](CCCNC(=N)N)C(=O)N[C@@H](C)C(=O)N[C@@H](CCC(N)=O)C(=O)N[C@@H]([C@@H](C)CC)C(=O)N[C@@H](C)C(=O)N[C@@H]([C@@H](C)CC)C(=O)N[C@H](C(=O)NCC(=O)N[C@@H](CCSC)C(=O)N[C@@H](CO)C(=O)N[C@H](C(=O)N[C@@H](Cc4c[nH]c5ccccc45)C(=O)N[C@@H](CO)C(=O)O)[C@@H](C)O)CSSC[C@@H](C(=O)O)NC(=O)[C@H](Cc4ccccc4)NC(=O)[C@H](CCCNC(=N)N)NC(=O)[C@H](C)NC(=O)[C@H](CC(C)C)NC(=O)[C@H](CO)NC(=O)[C@H](CCCNC(=N)N)NC(=O)[C@H](CCCCN)NC(=O)[C@H]([C@@H](C)O)NC3=O)NC2=O)cc1)C(=O)O` [AQ1-EEEEPEEEEPEEEEPEEEE-Glu^γ-C15-CH3]: 340 pM; `CC[C@H](C)[C@@H]1NC(=O)[C@H](C)NC(=O)[C@H]([C@@H](C)CC)NC(=O)[C@H](CCC(N)=O)NC(=O)[C@H](C)NC(=O)[C@H](CCCNC(=N)N)NC(=O)[C@H](C(C)C)NC(=O)[C@H](CC(C)C)NC(=O)[C@H](CCC(=O)O)NC(=O)[C@H](CCCNC(=N)N)NC(=O)CNC(=O)[C@@H](NC(=O)[C@H](CC(C)C)NC(=O)[C@H](CCCCN)NC(=O)[C@@H](NC(=O)[C@@H](NC(=O)[C@H](CCC(=O)O)NC(=O)[C@H](CCC(=O)O)NC(=O)[C@H](CCSC)NC(=O)[C@H](Cc2c[nH]c3ccccc23)NC(=O)[C@H](CO)NC(=O)[C@H](C)N)C(C)C)[C@@H](C)CC)CSSC[C@@H]2NC(=O)[C@@H](NC(=O)[C@H](CCCCN)NC(=O)[C@H](CC(N)=O)NC(=O)[C@H](C)NC(=O)[C@H](CC(C)C)NC(=O)[C@H](C)NC(=O)[C@H](CO)NC(=O)[C@H](Cc3ccc(O)cc3)NC(=O)[C@H](CC(C)C)NC(=O)[C@@H](N)Cc3ccc(C(C)=NOCCNC(=O)[C@H](CCCCN)NC(=O)[C@H](CCCCN)NC(=O)[C@H](CO)NC(=O)[C@H](C)NC(=O)CNC(=O)[C@H](CO)NC(=O)[C@H](C)NC(=O)CNC(=O)CC[C@H](NC(=O)CCCCCCCCCCCCC(=O)O)C(=O)O)cc3)CSSC[C@H](NC(=O)CNC(=O)[C@H](C(C)C)NC(=O)[C@H](Cc3c[nH]cn3)NC2=O)C(=O)N[C@@H]([C@@H](C)O)C(=O)N[C@@H](CCCCN)C(=O)N[C@@H](CCCNC(=N)N)C(=O)N[C@@H](CO)C(=O)N[C@@H](CC(C)C)C(=O)N[C@@H](C)C(=O)N[C@@H](CCCNC(=N)N)C(=O)N[C@@H](Cc2ccccc2)C(=O)N[C@H](C(=O)O)CSSC[C@@H](C(=O)NCC(=O)N[C@@H](CCSC)C(=O)N[C@@H](CO)C(=O)N[C@H](C(=O)N[C@@H](Cc2c[nH]c3ccccc23)C(=O)N[C@@H](CO)C(=O)O)[C@@H](C)O)NC1=O` [AQ1-KKSAGSAG-Glu^γ-C13-COOH]: 270 pM.
